Laboratory results: patent publication EP0023575A1, “Benzene sulfonyl semicarbazides, their preparation and use, pharmaceutical formulations containing them and their preparation” (HOECHST AKTIENGESELLSCHAFT, priority 1979, dated 1981)

Tested on: normal ernährte Kaninchen
Assay: Blood sugar lowering in normally fed rabbits after oral administration (autoanalyzer)
Format: in vivo
Protocol: Die blutzuckersenkende Wirkung der beschriebenen Benzolsulfonylsemicarbazide kann dadurch festgestellt werden, daß man sie als freie Verbindung oder in Form der Natriumsalze an normal ernährte Kaninchen verfüttert und den Blutzuckerwert nach der bekannten Methode von Hagedorn-Jensen oder mit einem Autoanalyzer über eine längere Zeitdauer ermittelt.
Die routinemäßige Bestimmung der blutzuckersenkenden Wirkung kann mit Dosierungen von z.B. 10,2 oder 0,4 mg Wirksubstanz pro kg Versuchstier nach bekannten Methoden erfolgen.
4-(4-<2-(1-Oxo-isoindolin-2-carboxamido)-äthyl> -benzolsulfonyl)-1,1-hexamethylen-semicarbazid wurde in einer Dosierung von 0,4 mg/kg Kaninchen verabreicht und die Blutzuckerwerte wurden mit einem Autoanalyzer über eine längere Zeitdauer ermittelt. Die hierbei gemessene Blutzuckersenkung ist in der nachfolgenden Tabelle in % nach.... Stunden angegeben. In der Tabelle ist ferner die Blutzuckersenkung in % angegeben, die nach p.o. Verabreichung von 0,08 mg/kg Kaninchen beobachtet wurde.

O=C(NN1CCCCCC1)NS(=O)(=O)c1ccc(CCNC(=O)N2Cc3ccccc3C2=O)cc1 [4-(4-<2-(1-Oxo-isoindolin-2-carboxamido)-äthyl> -benzolsulfonyl)-1,1-hexamethylen-semicarbazid]
Blutzuckersenkung an Kaninchen in % (0,4 mg/kg p.o., after 1 hour): 26% | Blutzuckersenkung an Kaninchen in % (0,4 mg/kg p.o., after 3 hours): 31% | Blutzuckersenkung an Kaninchen in % (0,4 mg/kg p.o., after 5 hours): 43% | Blutzuckersenkung an Kaninchen in % (0,4 mg/kg p.o., after 24 hours): 37% | Blutzuckersenkung an Kaninchen in % (0,4 mg/kg p.o., after 48 hours): 0% | Blutzuckersenkung an Kaninchen in % (0,08 mg/kg p.o., after 1 hour): 11% | Blutzuckersenkung an Kaninchen in % (0,08 mg/kg p.o., after 3 hours): 22% | Blutzuckersenkung an Kaninchen in % (0,08 mg/kg p.o., after 5 hours): 33%
